In publication PMC11963559, “Identification of novel thiazole derivatives as flaviviral protease inhibitors effective against Dengue (DENV2) and Japanese encephalitis viruses” (Antimicrobial Agents and Chemotherapy, 2025):

Columns and labels:
Assay type in all cases: cell-based
[1] = MTT cytotoxicity assay in SH-SY5Y cells; details: human
Procedure: We further studied the effect of the compounds on JEV replication in the human neuroblastoma SH-SY5Y cells, which represents a suitable model cell line for a neuropathic virus, like JEV. At first, the cytotoxicity was studied for both compounds in SH-SY5Y cells. […] Then, the SH-SY5Y cells were infected with the JEV virus in the absence or presence of 3aq or 3au (10 µM), and viral genomic RNA copies were quantified using qRT-PCR at 24, 48, and 72 hpi, as described previously.
The MTT assay was performed to determine cellular metabolic activity as an indicator of cell viability, proliferation, and cytotoxicity. Thus, to determine whether these compounds had any toxic effects on cellular viability, an MTT assay was performed following the protocol described previously by Mosmann (1983) ([55], [56]). Briefly, BHK-21 and SH-SHY5Y cells were seeded into 96-well plates at a density of 20,000 cells/well. Almost 16–18 h later, the cells were treated with different concentrations of the compounds (3au and 3aq) for 24 h at 37 °C in 5% CO2. […] The absorbance of the solution in a 96-well plate was measured at 595 nm using a microplate reader (Epoch 2; BioTek Instruments). Each experiment was performed in triplicate, and the percentage of cell viability was determined as the ratio of the absorbance values of the experimental samples to the control solvent (DMSO) on the same plate.

[2] = tested on: DENV2; assay: DENV2 replication in BHK-21 cells, viral RNA by qRT-PCR; details: for SI, selectivity index (CC50/IC50): DENV2, BHK-21 cells, qRT-PCR IC50; for IC50: Dengue virus, DENV2, BHK-21, read-out: IC50, reduction of DENV2 viral RNA
Procedure: First, cytotoxic impact of these compounds was evaluated using MTT assay. […] Subsequently, we evaluated the effectiveness of these compounds in inhibiting DENV2 replication. BHK-21 cells were infected with the virus in presence of increasing concentration of these compounds, and harvested at 24 hpi. The virus replication rate was assessed by quantifying the copy number of viral genomic RNA using quantitative real-time PCR (qRT-PCR).
BHK-21 cells were seeded in a 24-well cell culture plate at a density of (0.25 × 10^6 cells/well) with regular growth medium containing DMEM + 10% FBS 1 day prior to infection in triplicate. Once the cells reached 85%–90% confluence, they were infected with DENV2 and JEV virus inoculum comprising DMEM + 2% FBS and 10 µM of the compound at an MOI of 0.1. Cells were incubated for 1.5 h at 37 °C with the virus-compound inoculum, with gentle rocking every 10 min to ensure even coverage and prevent the cellular monolayer from drying. Finally, the inoculum was replenished with fresh culture media comprising DMEM + 2% FBS and the compound, and then kept in an incubator in a humidified chamber at 37 °C until harvest (18 h). The cell culture supernatant was aspirated and washed with PBS, and the cellular monolayer was used for viral RNA isolation.
Total cellular RNA was extracted from BHK-21 cells using TRIzol reagent, according to the manufacturer’s instructions (Ambion Life Technologies, USA). RNA quantity and integrity were determined prior to use on a NanoDrop spectrophotometer (Thermo Fisher Scientific). Then, 1 µg of total RNA from each experimental sample was used to synthesize cDNA by reverse transcriptase (RT) by incubating the RNAs with Moloney murine leukemia virus (M-MuLV) RT, with specific RT primer, 5′-[…]-3′ (Tm = 63 °C), and deoxynucleoside triphosphates (dNTPs) (New England Biolabs) at 42 °C for 50 min, followed by inactivation at 70 °C for 15 min.
To quantify the viral RNA copy number, quantitative RT-PCR (qRT-PCR) was performed in duplicate using iTaq Universal SYBR Green Supermix (Bio-Rad). The cDNAs used for qPCR analysis were prepared using Power SYBR Green PCR Master Mix (Bio-Rad, #172–5125) in a QuantStudio5 Applied Biosystems real-time PCR system. For qPCR amplification of the JEV amplicon size of 202 bp, the sequences of the forward and reverse primer pairs used were 5′-[…]-3′ (Tm = 65 °C) and 5′-[…]-3′ (Tm = 63 °C) and for DENV amplicon of 163 bp, the sequences of the forward and reverse primer pair used were 5′-[…]-3′ (Tm = 61 °C) and 5′-[…]-3′ (Tm = 59 °C). […] Delta Ct for both control and compound-treated samples was determined and subsequently analyzed by determining the delta Ct to determine the mRNA expression of target genes in control vs treated samples.

[3] = tested on: JEV; assay: JEV progeny virus titer in BHK-21 supernatant (TCID50 assay); details: BHK-21, read-out: IC50 of viral titer reduction (called TCID50 in the source)
Procedure: To this end, we assessed the antiviral activity of shortlisted compounds by evaluating their ability to inhibit progeny virus production. BHK-21 cells were infected with DENV2 and JEV (MOI: 0.1) in the presence of different concentrations of 3aq or 3au or with DMSO, and viral titer was determined in the supernatants harvested at 18 hpi. Compound 3aq caused the maximum reduction of viral titer showing TCID50 of 5.18 ± 0.87 and 2.29 ± 0.50 µM against DENV2 and JEV, respectively (Fig. 8B and D).
During DENV2 and JEV infection, the viral supernatant was collected and used in the TCID50 assay to determine the viral titer. Then, 3 × 10^4 BHK-21 cells per well were seeded in a 96-well cell culture microtiter plate the day before titration. The virus stock was diluted with infection media (DMEM + 2% FBS) to attain virus dilutions of 1 × 10^−2 to 6.4 × 10^−7 in 12 parallels, with the last column of the 96-well plate serving as virus-free cell control. On the day of the assay, when the cell had reached 90%–95% confluency, the growth medium was aspirated using a multichannel pipette, and 100 µL of virus inoculum of different dilutions was transferred to each well, keeping the last well only in infection media without virus. The cells were then incubated at 37 °C in a humidified 5% CO2 chamber. […] TCID50 was calculated using the Spearman and Karber methods.

SMILES	CC50 at 24 h [1]	SI, selectivity index (CC50/IC50) [2]	IC50 [2]	IC50 [3]
COc1ccc(-c2csc(N/N=C(\C)c3ccc(O)cc3)n2)cc1 [3aq]	58.3 ± 4.31 µM	18.35	4.47 ± 0.41 µM	2.29 ± 0.5 µM
COc1ccc(-c2csc(N/N=C(\C)c3cc(O)cc(O)c3)n2)cc1 [3au]	49.4 ± 3.65 µM	10.38	7.38 ± 0.6 µM	2.72 ± 0.24 µM
